Laboratory results published in PubChem BioAssay AID330 (DTP/NCI, 2004).
Where “and” joins values, the source holds several entries; their conditions need not be identical. Equal entries are not always repeated. Toxic doses and inconclusive results are not listed. Numbered stars: 1 amine (or outer) side, 2 acyl side, 3 side chain; on linkers, the order of the positions; unused ones are H or OH. Bridge positions count the residues as written; N and C are the ends. Square brackets hold non-standard residues; d marks the D form. Peptide text beside a SMILES is read from it. I, II: the chains in the order shown. Actinocin(9to1) = Cc1c2oc3c(C)ccc(C(=O)[*:1])c3nc-2c(C(=O)[*:2])c(N)c1=O; aThr = C[C@H](O)[C@H](N)C(=O)O; NMeV = CN[C@H](C(=O)O)C(C)C; Sar = CNCC(=O)O

Tested on: P388 leukemia ip, CD2F1 mice, survival T/C
Assay: NCI In Vivo Anticancer Drug Screen. Data for tumor model P388 Leukemia (intraperitoneal) in CD2F1 (CDF1) mice
Details: endpoint: median survival time, higher = longer survival
Outline: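 Mice carrying the transplanted tumor received test compound or vehicle. Survival was recorded in each group, and the value is the treated-group measurement divided by that of the vehicle-treated control group.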

Cc1c2oc3c(C)ccc(C(=O)N[C@@H]4C(=O)N[C@H](C(C)C)C(=O)N5CCC[C@H]5C(=O)N(C)CC(=O)N(C)[C@@H](C(C)C)C(=O)O[C@H]4C)c3nc-2c(C(=O)N[C@@H]2C(=O)N[C@H](C(C)C)C(=O)N3CCC[C@H]3C(=O)N(C)CC(=O)N(C)[C@@H](C(C)C)C(=O)O[C@H]2C)c(N)c1=O (I: [aThr][dV]P[Sar][NMeV] / II: [aThr][dV]P[Sar][NMeV]; ester I:1-I:C, II:1-II:C; linker I:N-II:N via Actinocin(9to1))
T/C (dose: 0.05 mg/kg/injection, schedule: Q01DX005 (ip), vehicle: saline + alcohol): 236 % of control
T/C (dose: 0.08 mg/kg/injection, schedule: Q04DX003 (ip), vehicle: saline + alcohol): 165 % of control
T/C (dose: 0.09 mg/kg/injection, schedule: Q01DX009 (ip), vehicle: water): 79 % of control
T/C (dose: 0.1 mg/kg/injection, schedule: Q01DX001 (ip), vehicle: water): 181 % of control
T/C (dose: 0.11 mg/kg/injection, schedule: Q04DX003 (ip), vehicle: saline + alcohol): 151 % of control
T/C (dose: 0.13 mg/kg/injection, schedule: Q04DX002 (ip), vehicle: saline + alcohol): 156 % of control and 180 % of control and 198 % of control
T/C (dose: 0.13 mg/kg/injection, schedule: Q04DX003 (ip), vehicle: saline + alcohol): 223 % of control
T/C (dose: 0.15 mg/kg/injection, schedule: Q04DX003 (ip), vehicle: saline): 169 % of control
T/C (dose: 0.16 mg/kg/injection, schedule: Q01DX009 (ip), vehicle: water): 65 % of control
T/C (dose: 0.18 mg/kg/injection, schedule: Q04DX003 (ip), vehicle: saline + alcohol): 163 % of control
T/C (dose: 0.21 mg/kg/injection, schedule: Q04DX002 (ip), vehicle: saline + alcohol): 186 % of control
T/C (dose: 0.22 mg/kg/injection, schedule: Q04DX002 (ip), vehicle: saline + alcohol): 162 % of control and 215 % of control
T/C (dose: 0.22 mg/kg/injection, schedule: Q04DX003 (ip), vehicle: saline + alcohol): 247 % of control
T/C (dose: 0.3 mg/kg/injection, schedule: Q01DX001 (ip), vehicle: saline): 153 % of control
T/C (dose: 0.3 mg/kg/injection, schedule: Q04DX003 (ip), vehicle: saline + alcohol): 182 % of control
T/C (dose: 0.3 mg/kg/injection, schedule: Q04DX003 (ip), vehicle: saline): 175 % of control
T/C (dose: 0.36 mg/kg/injection, schedule: Q04DX002 (ip), vehicle: saline + alcohol): 118 % of control and 176 % of control and 212 % of control
T/C (dose: 0.36 mg/kg/injection, schedule: Q04DX003 (ip), vehicle: saline + alcohol): 99 % of control
T/C (dose: 0.45 mg/kg/injection, schedule: Q01DX001 (ip), vehicle: saline): 164 % of control
T/C (dose: 0.5 mg/kg/injection, schedule: Q04DX003 (ip), vehicle: saline + alcohol): 220 % of control
T/C (dose: 0.6 mg/kg/injection, schedule: Q01DX001 (ip), vehicle: saline): 169 % of control
T/C (dose: 0.6 mg/kg/injection, schedule: Q04DX002 (ip), vehicle: saline + alcohol): 101 % of control and 207 % of control and 254 % of control
T/C (dose: 0.6 mg/kg/injection, schedule: Q04DX003 (ip), vehicle: saline): 86 % of control
T/C (dose: 0.8 mg/kg/injection, schedule: Q01DX001 (ip), vehicle: water): 183 % of control
T/C (dose: 1.0 mg/kg/injection, schedule: Q04DX002 (ip), vehicle: saline + alcohol): 260 % of control and 274 % of control
T/C (dose: 1.2 mg/kg/injection, schedule: Q01DX001 (ip), vehicle: water): 55 % of control
T/C (dose: 3.0 micrograms/kg/injection, schedule: Q01DX009 (ip), vehicle: water): 150 % of control and 160 % of control and 175 % of control
T/C (dose: 6.0 micrograms/kg/injection, schedule: Q01DX009 (ip), vehicle: water): 164 % of control and 170 % of control and 188 % of control
T/C (dose: 6.25 micrograms/kg/injection, schedule: Q01DX005 (ip), vehicle: saline + alcohol): 207 % of control
T/C (dose: 6.25 micrograms/kg/injection, schedule: Q01DX009 (ip), vehicle: saline): 150 % of control
T/C (dose: 6.5 micrograms/kg/injection, schedule: Q01DX009 (ip), vehicle: saline + alcohol): 155 % of control
T/C (dose: 10.8 micrograms/kg/injection, schedule: Q01DX009 (ip), vehicle: saline + alcohol): 160 % of control
T/C (dose: 12.5 micrograms/kg/injection, schedule: Q01DX005 (ip), vehicle: saline + alcohol): 207 % of control
T/C (dose: 18.0 micrograms/kg/injection, schedule: Q01DX009 (ip), vehicle: saline + alcohol): 163 % of control
T/C (dose: 25.0 micrograms/kg/injection, schedule: Q01DX005 (ip), vehicle: saline + alcohol): 245 % of control
T/C (dose: 30.0 micrograms/kg/injection, schedule: Q01DX009 (ip), vehicle: saline + alcohol): 184 % of control
T/C (dose: 50.0 micrograms/kg/injection, schedule: Q01DX005 (ip), vehicle: saline + alcohol): 176 % of control and 267 % of control
T/C (dose: 64.8 micrograms/kg/injection, schedule: Q04DX003 (ip), vehicle: saline + alcohol): 156 % of control
T/C (dose: 77.8 micrograms/kg/injection, schedule: Q04DX003 (ip), vehicle: saline + alcohol): 174 % of control
T/C (dose: 83.3 micrograms/kg/injection, schedule: Q01DX009 (ip), vehicle: saline + alcohol): 98 % of control
T/C (dose: 100.0 micrograms/kg/injection, schedule: Q01DX005 (ip), vehicle: saline + alcohol): 178 % of control
T/C (dose: 130.0 micrograms/kg/injection, schedule: Q04DX003 (ip), vehicle: saline + alcohol): 175 % of control
T/C (dose: 139.0 micrograms/kg/injection, schedule: Q01DX009 (ip), vehicle: saline + alcohol): 96 % of control
T/C (dose: 180.0 micrograms/kg/injection, schedule: Q04DX003 (ip), vehicle: saline + alcohol): 190 % of control
T/C (dose: 216.0 micrograms/kg/injection, schedule: Q04DX003 (ip), vehicle: saline + alcohol): 192 % of control
T/C (dose: 300.0 micrograms/kg/injection, schedule: Q04DX003 (ip), vehicle: saline + alcohol): 162 % of control and 175 % of control
T/C (dose: 360.0 micrograms/kg/injection, schedule: Q04DX003 (ip), vehicle: saline + alcohol): 197 % of control
T/C (dose: 500.0 micrograms/kg/injection, schedule: Q04DX003 (ip), vehicle: saline + alcohol): 113 % of control and 219 % of control
T/C (dose: 600.0 micrograms/kg/injection, schedule: Q04DX003 (ip), vehicle: saline + alcohol): 101 % of control
